Values of other authors, collected in patent USRE45822E1, “Oral dosage form comprising a therapeutic agent and an adverse-effect agent” (Purdue Pharma L.P., priority 2001, dated 2015).

Conditions: administered orally; retain much of their efficacy

In the case of `C[C@H]1[C@H]2Cc3ccc(O)cc3[C@]1(C)CCN2CC1CC1` [cyclazocine], the duration of action is given as about 24 h.
For `O=C1CC[C@@]2(O)[C@H]3Cc4ccc(O)c5c4[C@@]2(CCN3CC2CC2)[C@H]1O5` [naltrexone], the duration of action is listed as about 24 h.
